Tests used:
[1] = biological target: T1, P2X7 receptor (Rattus norvegicus, UniProt Q64663); assay: ATP-induced extracellular release of IL-1.beta and IL-1.alpha from macrophages in vitro (ELISA); format: cell-based
T1 construct: Alveolar macrophages (AM) were recovered from normal rats by bronchoalveolar lavage; endogenous in cells; host or cells: primary alveolar macrophages from male Wistar rats (bronchoalveolar lavage)
T1 sequence (Q64663 1-595): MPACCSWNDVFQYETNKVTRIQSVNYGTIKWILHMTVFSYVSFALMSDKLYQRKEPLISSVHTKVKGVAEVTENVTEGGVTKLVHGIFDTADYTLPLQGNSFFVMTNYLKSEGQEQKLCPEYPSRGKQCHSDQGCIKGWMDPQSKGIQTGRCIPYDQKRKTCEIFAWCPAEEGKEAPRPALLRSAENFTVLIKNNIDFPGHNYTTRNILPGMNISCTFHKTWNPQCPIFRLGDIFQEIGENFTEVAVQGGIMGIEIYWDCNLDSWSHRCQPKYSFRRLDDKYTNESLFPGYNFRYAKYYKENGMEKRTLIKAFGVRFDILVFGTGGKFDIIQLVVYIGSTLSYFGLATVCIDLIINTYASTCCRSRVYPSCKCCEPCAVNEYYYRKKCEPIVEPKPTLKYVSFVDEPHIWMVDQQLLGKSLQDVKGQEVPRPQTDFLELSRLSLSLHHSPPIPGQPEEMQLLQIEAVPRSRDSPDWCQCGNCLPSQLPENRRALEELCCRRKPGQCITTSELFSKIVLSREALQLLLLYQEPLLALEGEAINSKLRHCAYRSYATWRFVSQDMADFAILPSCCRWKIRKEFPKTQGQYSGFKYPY
Description: Alveolar macrophages (1×10^6 cells/ml) were incubated in complete medium in 96 wells tissue culture plates overnight at 37° C. in 5% CO2. The medium was changed for fresh medium and cells were incubated with Lipopolysaccharide (LPS. 1 μg/ml) (Sigma) for 3 h followed by ATP (5 mM) or 3′-0-(4-benzoylbenzoyl ATP (BZATP) (0.5 mM. Molecular Robes) for 1 h in the presence and absence of HN compounds (10^−9M and 10^−8M) or Brilliant Blue G (BBG, 5×10^−9 M, Sigma). In some experiments, cells were pre-treated with oxidized ATP (oATP, 100 μM, Sigma) for 2 h before LPS and ATP or BzATP stimulation. In other experiments, cells were stimulated with LPS (1 μg/ml) for 3 h and subsequently with Nigericin (20 μM) for 30 min in the presence and absence of HN compounds (10^−9, 10^−8M). Controls were incubated with LPS only. After incubation, cell culture media were collected, centrifuged in a microfuge (Eppendorf) and the cell-free supernatants were collected and stored at −80° C. for cytokine measurement. Levels of immunoreactive IL-1.beta and IL-1.alpha were assayed using ELISA (R&D Systems, Minneapolis, Minn. and Biosource (Medicorp), Camarillo, Calif. respectively) performed according to the manufacturer's protocol.

[2] = biological target: T1, P2X7 receptor; assay: ATP-induced membrane permeabilization and pore formation (ethidium bromide uptake) in alveolar macrophages; format: cell-based; conditions: for ATP-mediated permeabilization to ethidium bromide / inhibition of ATP-induced pore formation (ethidium bromide uptake): ATP 5 mM; for ATP-mediated permeabilization to ethidium bromide / BzATP-mediated permeabilization to ethidium bromide: pre-treatment with oATP 0.1 mM 2 h or BBG 5×10^−9M 5 min; for BzATP-mediated permeabilization to ethidium bromide / inhibition of BzATP-induced pore formation: BzATP 0.5 mM; for inhibition of ATP-induced pore formation (ethidium bromide uptake): 5 min, compound 10^−9M; for inhibition of ATP-induced pore formation (ethidium bromide uptake) / inhibition of BzATP-induced pore formation: rat alveolar macrophages, FIG. 1A
Description: Alveolar macrophages (AM) were recovered from normal rats by bronchoalveolar lavage (BAL) as described previously (Lemaire (1991) Am. J. Pathol. 138:487-495). The lungs were lavaged with 7 ml-aliquots of sterile phosphate buffered saline (pH 7.4; Wisent, St. Bruno, QC), and BAL cells were obtained by centrifugation at 200×g at 4° C. for 5 minutes. The cells were resuspended in RPMI 1640 medium (Wisent, St-Bruno, QC) supplemented with 0.5% dialysed fetal bovine serum (Wisent. St-Bruno, QC), 0.005% gentamycin (Schering Canada Inc. Pointe Claire. QC) and 0.8% HEPES (Sigma Chemical Co., St-Louis, MO) which will henceforth be referred to as complete culture medium (CM).
Freshly isolated AM (1×10^5) were incubated in 200 μl complete medium in 96 wells tissue culture plates for 24 h. Following centrifugation, medium was replaced with saline solution containing 125 mM NaCl, 5 mM KCL, 1 mM MgSO4, 1 mM Na2HPO4, 5.5 mM glucose, 5 mM NaHCO3, 1 mM CaCl2 and 20 mM Hepes, pH 7.6. Ethidium bromide was added to a final concentration of 20 μM and AM were stimulated with ATP (5 mM, Sigma), 3′-O-(4-benzoylbenzoyl ATP (BzATP) (0.5 mM, Molecular Probes) or uridine 5′-triphosphate (UTP) (Sigma), at 37° C. for 5 minutes. In some experiments, cells were pre-treated with oxidized ATP (oATP, 0.1 mM, Sigma) for 2 h or Brilliant Blue G (BBG, 5×10^−9M, Sigma) for 5 minutes, or HN compounds for 5 minutes before ATP stimulation. After ATP stimulation, the plate was centrifuged (200×g, 1 minute), culture supernatants were replaced with fresh buffer and the fluorescence was analyzed using a Zeiss Axiovert S1100 TV inverted microscope equipped with a rhodamine filter and a 32× objective. Images were captured and analysed with the Northern Eclipse image analysis software. Data are expressed as percentage of cells that become permeabilized to ethidium bromide.

[3] = biological target: T2, P2X7 receptor (Mus musculus, UniProt Q9Z1M0); assay: ATP-induced extracellular release of IL-1.beta, IL-1.alpha and IL-6 in vivo (peritoneal lavage of LPS-primed mice); conditions: 0.1 mg and 0.3 mg i.p. 15 min before ATP, FIG. 6B
T2 construct: from tissue; host or cells: living mice; peritoneal cavity (lavage fluid analysed)
T2 sequence (Q9Z1M0 1-595): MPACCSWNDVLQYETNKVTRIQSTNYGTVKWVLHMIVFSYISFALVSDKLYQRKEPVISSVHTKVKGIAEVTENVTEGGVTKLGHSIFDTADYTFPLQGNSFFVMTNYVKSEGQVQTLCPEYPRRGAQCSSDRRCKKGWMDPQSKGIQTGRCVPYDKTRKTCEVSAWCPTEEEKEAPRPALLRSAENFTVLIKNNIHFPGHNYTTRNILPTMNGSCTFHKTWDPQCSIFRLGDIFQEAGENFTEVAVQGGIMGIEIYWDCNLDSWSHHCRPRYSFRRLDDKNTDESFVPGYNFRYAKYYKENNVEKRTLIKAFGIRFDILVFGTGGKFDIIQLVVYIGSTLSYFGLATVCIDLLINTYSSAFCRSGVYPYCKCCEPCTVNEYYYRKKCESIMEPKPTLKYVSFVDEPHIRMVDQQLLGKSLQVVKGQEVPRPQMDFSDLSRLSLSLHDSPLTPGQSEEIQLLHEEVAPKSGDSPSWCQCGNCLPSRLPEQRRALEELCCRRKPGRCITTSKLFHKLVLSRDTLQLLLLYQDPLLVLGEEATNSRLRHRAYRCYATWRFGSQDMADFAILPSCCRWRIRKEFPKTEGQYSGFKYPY
Description: Groups of mice were injected intraperitoneally (i.p.) with 50 μg of LPS. Two hours after this LPS injection, mice were injected i.p. with either PBS or ATP (5 mM, adjusted to pH 7), or with HN compounds (0.1 mg and 0.3 mg) 15 minutes before ATP injection. Mice were sacrificed 30 minutes (IL-1.beta and IL-1.alpha) or 120 minutes (IL-6) after the ATP or PBS injection and peritoneal cavities were lavaged each with 3 ml PBS. Samples of peritoneal lavages were centrifuged, cell-free supernatants were collected and tested for the presence of IL-1.beta, IL-1.alpha and IL-6 using ELISA (R&D Systems, Minneapolis, Minn., and Biosource, Camarillo, Calif., respectively).

[4] = biological target: T1, P2X7 receptor; assay: ATP-induced apoptosis, cell death ELISA of cytoplasmic oligonucleosomal DNA; format: cell-based; conditions: ATP 5 mM 30 min, read after 24 h; compound 10^−9M
Description: This assay using mouse monoclonal antibodies directed against DNA and histones respectively, allows the quantitative determination of mono- and oligonucleosomes in the cytoplasmic fraction of cell lysates prepared from macrophages (Li et al. (1997) Toxicol. Appl. Pharmacol. 145:331-339). Alveolar macrophages (1×10^5) were incubated in 200 μl complete medium in 96 wells tissue culture plates with ATP (5 mM) in the presence and absence of HN compounds for 30 minutes and media was replaced with fresh culture media. After 24 h, the plate was centrifuged, the culture supernatants removed and macrophages were lysed in lysis buffer for 30 min on ice and centrifuged at 14,000 rpm for 15 min at 4° C. Cytoplasmic oligonucleosomal DNA was measured in cell supernatants by ELISA.

CCOc1ccc(Nc2ccc(/C(=C3C=C/C(=[N+](/CC)Cc4cccc(S(=O)(=O)[O-])c4)C=C/3C)c3ccc(N(CC)Cc4cccc(S(=O)(=O)[O-])c4)cc3C)cc2)cc1.[Na+] [Brilliant Blue G, reference compound]
BzATP-induced IL-1.beta release ([1]; LPS-primed macrophages, BzATP 0.5 mM, BBG 5×10^−9M, FIG. 3A): significantly reduced
ATP-mediated permeabilization to ethidium bromide [2]: blocked
BzATP-mediated permeabilization to ethidium bromide [2]: blocked

N=C(N)NCCC[C@@H](Nc1ccccc1NC(=O)Cc1ccc(O)cc1)C(N)=O [C-12, N-5-guanidinopentanamide-(2R)-yl-2-N-(p-hydroxphenylacetyl) phenylenediamine]
inhibition of ATP-induced pore formation (ethidium bromide uptake) [2]: inhibited significantly
IL-1.beta in peritoneal lavage in response to ATP, various HN compounds [3]: reduced levels

N=C(N)NCCC[C@@H](Nc1ccc(C(=O)c2ccc(Cl)cc2)cc1NC(=O)Cc1ccc(O)cc1)C(N)=O [C-13, N-5-guanidinopentanamide-(2R)-yl-2-N-(p-hydroxyphenylacetyl)-4-(p-chlorobenzoyl)-phenylenediamine]
IL-1.beta in peritoneal lavage in response to ATP, various HN compounds [3]: reduced levels

N=C(N)NCCC[C@H](C(N)=O)n1c(Cc2ccc(O)cc2)nc2cc(C(=O)O)ccc21 [C-15, N-5-guanidinopentanamide-(2R)-yl 2-(p-hydroxylbenzyl)5-carboxybenzimidazole]
cytoplasmic oligonucleosomal DNA in response to ATP [4]: inhibited
inhibition of extracellular IL-1.beta release, ATP stimulation ([1]; LPS 3 h then ATP 5 mM 1 h, compound 10^−9 M, FIG. 3A): significant inhibition
inhibition of extracellular IL-1.beta release, BzATP stimulation ([1]; LPS 3 h then BzATP 0.5 mM 1 h, compound 10^−9 M, FIG. 3A): significant inhibition
IC50 ([1]; LPS-primed rat alveolar macrophages, ATP 5 mM, FIG. 3B, read-out: half-maximal response, inhibition of ATP-induced IL-1.beta release): ~0.1 nM
inhibition of ATP-induced IL-1.beta release, concentration-response ([1]; inhibition already seen at 10^−12M, FIG. 3B): dose-dependent
inhibition of ATP-induced pore formation, concentration-response ([2]; 10^−12 M to 10^−6 M, dose-dependent manner, FIG. 1B): inhibited
inhibition of ATP-induced pore formation (ethidium bromide uptake) [2]: inhibited significantly
inhibition of BzATP-induced pore formation [2]: inhibit
IL-1.beta in peritoneal lavage in response to ATP, various HN compounds [3]: reduced levels

Nc1ncnc2c1ncn2[C@@H](C=O)O[C@@H](C=O)COP(=O)(O)OP(=O)(O)OP(=O)(O)O [oATP, oxidized ATP, reference compound]
ATP-induced IL-1.beta release ([1]; LPS-primed macrophages, ATP 5 mM, oATP 100 μM pre-treatment 2 h, FIG. 3A): significantly reduced
ATP-mediated permeabilization to ethidium bromide [2]: blocked
BzATP-mediated permeabilization to ethidium bromide [2]: blocked

Cyclic (-Gly-(p-chloro)Phe-Tyr-D-Arg-) (GFYR; HELM PEPTIDE1{G.[O=C([C@H](Cc1ccc(Cl)cc1)N[*:1])[*:2]].Y.[dR]}$PEPTIDE1,PEPTIDE1,1:R1-4:R2$$$V2.0; SMILES N=C(N)NCCC[C@H]1NC(=O)[C@H](Cc2ccc(O)cc2)NC(=O)[C@H](Cc2ccc(Cl)cc2)NC(=O)CNC1=O) [C-10]
inhibition of ATP-induced pore formation (ethidium bromide uptake) [2]: inhibited significantly
inhibition of BzATP-induced pore formation [2]: inhibit
IL-1.beta in peritoneal lavage in response to ATP, various HN compounds [3]: reduced levels

Cyclic (-Gly-D-Gln-Tyr-D-Arg-) (GQYR; HELM PEPTIDE1{G.[dQ].Y.[dR]}$PEPTIDE1,PEPTIDE1,1:R1-4:R2$$$V2.0; SMILES N=C(N)NCCC[C@H]1NC(=O)[C@H](Cc2ccc(O)cc2)NC(=O)[C@@H](CCC(N)=O)NC(=O)CNC1=O) [C-8]
inhibition of ATP-induced pore formation (ethidium bromide uptake) [2]: inhibited significantly

Cyclic (-Gly-Gln-Tyr-D-Arg-) (GQYR; HELM PEPTIDE1{G.Q.Y.[dR]}$PEPTIDE1,PEPTIDE1,1:R1-4:R2$$$V2.0; SMILES N=C(N)NCCC[C@H]1NC(=O)[C@H](Cc2ccc(O)cc2)NC(=O)[C@H](CCC(N)=O)NC(=O)CNC1=O) [C-7]
inhibition of ATP-induced pore formation (ethidium bromide uptake) [2]: inhibited significantly

H-Gly-Gln-Gly-Arg-Thr-Leu-Tyr-Gly-Phe-COOH (H-GQGRTLYGF-OH) [C-3]
cytoplasmic oligonucleosomal DNA in response to ATP [4]: inhibited

H-Val-Val-Tyr-Ala-Leu-Lys-Arg-Gln-Gly-[S-(3nitro-2-pyridine sulfenyl)]Cys-Thr-Leu-Tyr-Gly-Phe- [C-5]
IL-1.beta in peritoneal lavage in response to ATP, various HN compounds [3]: reduced levels

— patent US20090124555A1, “USE OF HISTOGRANIN AND HISTOGRANIN-LIKE COMPOUNDS AS INHIBITORS OF P2X7 RECEPTOR FUNCTION AND AS ANTI-ARTHRITIC AGENTS” (priority 2005, published 2009)
